Measurements published in patent publication US20230265116A1, “DEGRADATION OF (EGFR) BY CONJUGATION OF EGFR INHIBITORS WITH E3 LIGASE LIGAND AND METHODS OF USE” (BEIGENE, LTD., priority 2020, published 2023).

Columns and labels:
[1] = molecular target: T1, EGFR L858R/T790M/C797S (BaF3-LTC cells) (Homo sapiens, UniProt P00533, C797S/L858R/T790M); assay: EGFR degradation HTRF assay, BaF3-LTC cells; assay type: cell-based; conditions: BaF3-LTC, 16h treatment; for Dmax: maximum percentage of degradation, read-out: LTC Dmax (%); for DC50: read-out: LTC DC50
T1 construct: expressed in transfected cells; host or cells: BaF3
T1 sequence (P00533 25-1210 T790M/C797S/L858R): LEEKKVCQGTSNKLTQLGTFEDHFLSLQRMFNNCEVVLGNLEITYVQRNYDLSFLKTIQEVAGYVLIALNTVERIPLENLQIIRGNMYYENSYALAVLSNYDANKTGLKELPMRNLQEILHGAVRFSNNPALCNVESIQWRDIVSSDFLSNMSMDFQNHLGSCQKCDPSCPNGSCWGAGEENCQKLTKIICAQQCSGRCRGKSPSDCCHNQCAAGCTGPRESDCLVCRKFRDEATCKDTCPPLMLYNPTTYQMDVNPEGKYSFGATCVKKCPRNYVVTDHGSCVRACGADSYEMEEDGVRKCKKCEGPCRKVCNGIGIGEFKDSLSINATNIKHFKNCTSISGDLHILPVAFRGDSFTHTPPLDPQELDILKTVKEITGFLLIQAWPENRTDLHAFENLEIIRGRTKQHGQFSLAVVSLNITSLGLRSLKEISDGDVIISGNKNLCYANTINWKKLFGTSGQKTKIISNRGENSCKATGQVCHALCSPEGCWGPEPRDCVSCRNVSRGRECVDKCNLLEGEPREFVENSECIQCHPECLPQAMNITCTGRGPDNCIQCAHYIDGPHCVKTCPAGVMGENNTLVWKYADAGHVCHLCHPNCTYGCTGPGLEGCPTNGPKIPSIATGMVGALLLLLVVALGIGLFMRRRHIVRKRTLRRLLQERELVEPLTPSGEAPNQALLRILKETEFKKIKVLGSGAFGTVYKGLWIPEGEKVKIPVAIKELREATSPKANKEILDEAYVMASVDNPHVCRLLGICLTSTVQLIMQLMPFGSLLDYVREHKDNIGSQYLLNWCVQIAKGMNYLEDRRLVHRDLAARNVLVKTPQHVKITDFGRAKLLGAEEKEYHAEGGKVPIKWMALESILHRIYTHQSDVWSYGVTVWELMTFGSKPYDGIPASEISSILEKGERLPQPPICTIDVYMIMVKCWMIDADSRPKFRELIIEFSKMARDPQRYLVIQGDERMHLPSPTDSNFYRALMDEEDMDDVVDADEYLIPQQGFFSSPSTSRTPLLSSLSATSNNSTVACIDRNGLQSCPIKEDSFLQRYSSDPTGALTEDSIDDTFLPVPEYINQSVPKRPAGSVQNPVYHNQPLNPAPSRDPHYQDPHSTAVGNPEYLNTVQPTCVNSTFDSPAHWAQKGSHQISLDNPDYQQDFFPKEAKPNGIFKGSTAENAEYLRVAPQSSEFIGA
Summary of the method: (§1)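 EGFR remaining after a 16 h, 37 °C exposure (8 doses, 5-fold steps from 10 uM final, 0.2% DMSO) was quantified by HTRF antibodies in cell lysate. Percent inhibition relative to DMSO control was fitted by four-parameter logistic to give DC50; Dmax denotes maximal degradation.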

[2] = test system: EGFR Del19/T790M/C797S (BaF3-DTC cells); assay: EGFR degradation HTRF assay, BaF3-DTC cells; assay type: cell-based; conditions: 16h treatment; for DTC Dmax (%): maximum percentage of degradation; for DC50: read-out: DTC DC50
Summary of the method: as §1

Dmax [1] [%]	DC50 [1] [µM]	DC50 [2] [µM]	SMILES	DTC Dmax (%) [2] [%]
89.8	0.00708	0.0043	CCc1cc(Nc2ncc(Br)c(Nc3ccc4nc(C)ccc4c3P(C)(C)=O)n2)c(OC)cc1N1CCC(N2CCN(CCc3cc(F)c(C4CCC(=O)NC4=O)c(F)c3)C[C@@H]2C)CC1 (stereo partly drawn) [Example 715, 3-(4-(2-((S)-4-(1-(4-((5-bromo-4-((5-(dimethylphosphoryl)-2-methylquinolin-6-yl)amino)pyrimidin-2-yl)amino)-2-ethyl-5-methoxyphenyl)piperidin-4-yl)-3-methylpiperazin-1-yl)ethyl)-2,6-difluorophenyl)piperidine-2,6-dione]	92.57
90	0.0082	0.00306	CCc1cc(Nc2ncc(Br)c(Nc3ccc4nc(C)ccc4c3P(C)(C)=O)n2)c(OC)cc1N1CCC(N2C[C@H](C)N(CCc3cc(F)c(C4CCC(=O)NC4=O)c(F)c3)C[C@H]2C)CC1 (stereo partly drawn) [Example 716, 3-(4-(2-((2S,5R)-4-(1-(4-((5-bromo-4-((5-(dimethylphosphoryl)-2-methylquinolin-6-yl)amino)pyrimidin-2-yl)amino)-2-ethyl-5-methoxyphenyl)piperidin-4-yl)-2,5-dimethylpiperazin-1-yl)ethyl)-2,6-difluorophenyl)piperidine-2,6-dione]	91.65
91.4	0.0171	0.00598	CCc1cc(Nc2ncc(Br)c(Nc3ccc4nc(C)ccc4c3P(C)(C)=O)n2)c(OC)cc1N1CCC(N2CCN([C@H]3C[C@@H](c4cc(F)c(C5CCC(=O)NC5=O)c(F)c4)C3)CC2)CC1 (some centres unmarked) [Example 717, 3-(4-((1s,3s)-3-(4-(1-(4-((5-bromo-4-((5-(dimethylphosphoryl)-2-methylquinolin-6-yl)amino)pyrimidin-2-yl)amino)-2-ethyl-5-methoxyphenyl)piperidin-4-yl)piperazin-1-yl)cyclobutyl)-2,6-difluorophenyl)piperidine-2,6-dione]	94.13
89.6	0.121	0.0256	CCc1cc(Nc2ncc(Br)c(Nc3ccc4nc(C)ccc4c3P(C)(C)=O)n2)c(OC)cc1N1CCC(N2CCN(CC3CCN(c4cc(F)c(NC5CCC(=O)NC5=O)c(F)c4)CC3)CC2)CC1 (centres unmarked) [Example 718, 3-((4-(4-((4-(1-(4-((5-bromo-4-((5-(dimethylphosphoryl)-2-methylquinolin-6-yl)amino)pyrimidin-2-yl)amino)-2-ethyl-5-methoxyphenyl)piperidin-4-yl)piperazin-1-yl)methyl)piperidin-1-yl)-2,6-difluorophenyl)amino)piperidine-2,6-dione]	79.24
90.4	0.0729	0.0306	CCc1cc(Nc2ncc(Br)c(Nc3ccc4nc(C)ccc4c3P(C)(C)=O)n2)c(OC)cc1N1CCC(N2CCN(CCC3CCN(c4ccc5nn(C6CCC(=O)NC6=O)cc5c4)CC3)CC2)CC1 (centres unmarked) [Example 719, 3-(5-(4-(2-(4-(1-(4-((5-bromo-4-((5-(dimethylphosphoryl)-2-methylquinolin-6-yl)amino)pyrimidin-2-yl)amino)-2-ethyl-5-methoxyphenyl)piperidin-4-yl)piperazin-1-yl)ethyl)piperidin-1-yl)-2H-indazol-2-yl)piperidine-2,6-dione]	84.38
91.7	0.0203	0.0104	CCc1cc(Nc2ncc(Br)c(Nc3ccc4c(=O)n(C)ccc4c3P(C)(C)=O)n2)c(OC)cc1N1CCC(N2CCN(CCC3CCN(c4cc(F)c(C5CCC(=O)NC5=O)c(F)c4)CC3)CC2)CC1 (centres unmarked) [Example 720, 3-(4-(4-(2-(4-(1-(4-((5-bromo-4-((5-(dimethylphosphoryl)-2-methyl-1-oxo-1,2-dihydroisoquinolin-6-yl)amino)pyrimidin-2-yl)amino)-2-ethyl-5-methoxyphenyl)piperidin-4-yl)piperazin-1-yl)ethyl)piperidin-1-yl)-2,6-difluorophenyl)piperidine-2,6-dione]	86.63
91.9	0.0494	0.00728	CCc1cc(Nc2ncc(Br)c(Nc3ccc4c(=O)n(C)cnc4c3P(C)(C)=O)n2)c(OC)cc1N1CCC(N2CCN(CCC3CCN(c4cc(F)c(C5CCC(=O)NC5=O)c(F)c4)CC3)CC2)CC1 (centres unmarked) [Example 721, 3-(4-(4-(2-(4-(1-(4-((5-bromo-4-((8-(dimethylphosphoryl)-3-methyl-4-oxo-3,4-dihydroquinazolin-7-yl)amino)pyrimidin-2-yl)amino)-2-ethyl-5-methoxyphenyl)piperidin-4-yl)piperazin-1-yl)ethyl)piperidin-1-yl)-2,6-difluorophenyl)piperidine-2,6-dione]	88.98
81.7	0.0121	0.00567	COc1cc(N2CCN(C3CN(C(=O)c4cnc(C(=O)Nc5ccc(C6CCC(=O)NC6=O)cc5)cn4)C3)CC2)c(C)cc1Nc1ncc(Br)c(Nc2ccc3nccnc3c2P(C)(C)=O)n1 (centres unmarked) [Example 723, 5-(3-(4-(4-((5-bromo-4-((5-(dimethylphosphoryl)quinoxalin-6-yl)amino)pyrimidin-2-yl)amino)-5-methoxy-2-methylphenyl)piperazin-1-yl)azetidine-1-carbonyl)-N-(4-(2,6-dioxopiperidin-3-yl)phenyl)pyrazine-2-carboxamide]	76.49
